Test results from patent US20100184704A1, “USE OF THE PEPTIDE GLY-ARG-GLY-ASP-ASN-PRO AS A THERAPEUTIC AGENT” (priority 2007, published 2010).
Where a SMILES comes first, the peptide text is derived from it.

Assays:
HepG2-2.2.15 cells = assay: Cytotoxicity in the HBV assay (dye uptake cell viability); type: cell-based; conditions: peptide 10 micrograms per ml
HIV-1 = HIV-1 antiviral assay (CPE reduction, MTS readout) in CEM-SS cells; type: cell-based; conditions: peptide 10 micrograms per ml, strain HIV-1111B, 6 days post-infection
CEM-SS cells = assay: Cytotoxicity in the HIV-1 assay (MTS cell viability); conditions: CEM-SS cells, HIV-1 assay; peptide 10 micrograms per ml; MTS
[1] = tested on: MRC-5 cells (human embryonal lung fibroblasts); conditions: 6 days
HCMV strain AD169 = assay: HCMV plaque reduction assay in MRC-5 cells; conditions: HCMV AD169 in MRC-5 cells; peptide 10 micrograms per ml; 7-10 days
[2] = Cytotoxicity in the HBV assay (dye uptake cell viability); type: cell-based; conditions: human, HepG2-2.2.15 cells (stable line containing HBV ayw genome), peptide 10 micrograms per ml
[3] = tested on: Methicillin Resistant Staphylococcus Aureus (MRSA); assay: Methicillin resistant Staphylococcus aureus (MRSA) growth inhibition assay; type: cell-based; conditions: peptide 10 micrograms per ml, visual read, scored positive/negative (complete inhibition of macroscopic growth)
Pseudomonas aeruginosa = Pseudomonas aeruginosa growth inhibition assay; type: cell-based; conditions: peptide 10 micrograms per ml, visual read, scored positive/negative
Streptococcus pneumoniae = Streptococcus pneumoniae growth inhibition assay; type: cell-based; conditions: peptide 10 micrograms per ml, visual read, scored positive/negative
Source text: Results from Streptococcus pneumoniae assay:

[4] = Cytotoxicity in the HIV-1 assay (MTS cell viability); conditions: human, CEM-SS cells (uninfected, cells plus peptide only)
[5] = Cytotoxicity in the HCMV assay (CellTiter 96 cell viability); conditions: human, MRC-5 cells (embryonal lung fibroblasts)

Nc1ccn([C@@H]2CS[C@H](CO)O2)c(=O)n1 [3TC, Lamivudine]
% Cell viability (HepG2-2.2.15 cells): 95.8%

Cc1cn([C@H]2C[C@H](N=[N+]=[N-])[C@@H](CO)O2)c(=O)[nH]c1=O [AZT]
% CPE reduction in HIV-1 infected CEM-SS cells (HIV-1): 99% | % Cell viability (CEM-SS cells): 97%

Nc1nc(O)c2ncn(COC(CO)CO)c2n1 [Ganciclovir]
% Cell viability [1]: 100% | % plaque reduction (HCMV strain AD169): 100%

N=C(N)NCCC[C@H](NC(=O)CN)C(=O)NCC(=O)N[C@@H](CC(=O)O)C(=O)N[C@@H](CC(N)=O)C(=O)N1CCC[C@H]1C(=O)O [Gly-Arg-Gly-Asp-Asn-Pro, Gly-Arg-Gly-Asp-Asn-Pro-OH] (H-GRGDNP-OH)
viability at 144 h, 10 micrograms per ml [2]: 95.2% | % inhibition [3]: 0.0% | % inhibition (Pseudomonas aeruginosa): 0.0% | % inhibition (Streptococcus pneumoniae): 100.0% | viability at 10 micrograms per ml [4]: 100% | viability at 144 h [5]: 100%

CC(C)(C)NC(=O)[C@@H]1CN(Cc2cccnc2)CCN1C[C@@H](O)C[C@@H](Cc1ccccc1)C(=O)N[C@H]1c2ccccc2C[C@H]1O [Indinavir, indinavir]
% CPE reduction in HIV-1 infected CEM-SS cells (HIV-1): 100%
